Values quoted from earlier work, collected in patent US20220290237A1, “METHOD FOR PREDICTING THE RESPONSE OF ANTIPSYCHOTIC DRUGS” (INSERM (INSTITUT NATIONAL DE LA SANTÉ ET DE LA RECHERCHE …, priority 2019, published 2022).

Conditions: first episode psychosis patients; cited from earlier work

Cc1cc2c(s1)Nc1ccccc1N=C2N1CCN(C)CC1 [olanzapine, 2-méthyl-4-(4-méthyl-1-pipérazinyl)-10H-thiéno[2,3-b][1,5]benzodiazepine]
outcome after change from amisulpride to olanzapine: did not improve outcome for most of the patient
